Patent publication US20240262795A1, “PYRAZINE COMPOUNDS AS INHIBITORS OF FLT3” (Biomea Fusion, Inc., priority 2021, published 2024)

Columns and labels:
[1] = target: T1, Ba/F3 cell lines stably expressing human FLT3-ITD-F691L (Homo sapiens, UniProt P36888, F691L, cells depend on it, form not given); assay: FLT3 mutant assay, cell viability, Ba/F3-FLT3-ITD-F691L; type: cell-based, mouse; details: IC50 (3 days), CellTiter-Glo; read-out: Ba/F3-FLT3-ITD-F691L Relative IC50
T1 construct: Ba/F3-FLT3-ITD-F691L Relative IC50
T1 sequence (P36888 1-993 F691L): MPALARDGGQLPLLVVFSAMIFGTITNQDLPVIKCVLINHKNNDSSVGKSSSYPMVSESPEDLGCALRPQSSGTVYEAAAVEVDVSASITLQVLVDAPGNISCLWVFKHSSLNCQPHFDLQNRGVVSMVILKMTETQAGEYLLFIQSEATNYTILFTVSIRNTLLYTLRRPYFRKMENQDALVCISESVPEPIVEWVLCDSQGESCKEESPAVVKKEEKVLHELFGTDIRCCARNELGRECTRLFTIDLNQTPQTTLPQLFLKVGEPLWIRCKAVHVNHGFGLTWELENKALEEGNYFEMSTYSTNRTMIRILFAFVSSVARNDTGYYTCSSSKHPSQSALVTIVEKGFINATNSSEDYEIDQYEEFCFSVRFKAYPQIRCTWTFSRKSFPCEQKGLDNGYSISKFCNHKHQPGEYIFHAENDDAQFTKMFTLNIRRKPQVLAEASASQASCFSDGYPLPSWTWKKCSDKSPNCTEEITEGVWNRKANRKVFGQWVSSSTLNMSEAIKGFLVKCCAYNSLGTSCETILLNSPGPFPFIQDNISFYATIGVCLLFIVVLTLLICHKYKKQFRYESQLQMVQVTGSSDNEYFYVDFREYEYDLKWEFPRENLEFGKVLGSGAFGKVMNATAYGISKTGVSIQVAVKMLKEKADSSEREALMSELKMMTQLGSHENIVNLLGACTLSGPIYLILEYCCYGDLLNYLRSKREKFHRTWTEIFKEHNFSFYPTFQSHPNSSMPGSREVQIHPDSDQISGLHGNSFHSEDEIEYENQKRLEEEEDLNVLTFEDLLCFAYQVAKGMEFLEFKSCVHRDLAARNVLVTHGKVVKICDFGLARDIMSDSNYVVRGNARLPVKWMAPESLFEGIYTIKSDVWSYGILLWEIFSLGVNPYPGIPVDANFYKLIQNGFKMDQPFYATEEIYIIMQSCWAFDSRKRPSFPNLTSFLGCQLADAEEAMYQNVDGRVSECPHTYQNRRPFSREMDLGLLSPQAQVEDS
Procedure: Activity of compounds on FLT3 activating mutations were assessed using Ba/F3 cell lines (mouse pro-B cell line) stably expressing human FLT3-ITD, FLT3-ITD-D835Y or FLT3-ITD-F691L. […] The supernatant collected were concentrated with PEG8000 and used to infect Ba/F3 cells at 1-5 MOI in serum-free media with polybrene. Infected Ba/F3 cells were selected in presence of puromycin, and surviving cells verified by sequencing and/or protein detection assay. Constitutive expression of the activating kinase transforms the Ba/F3 cells into IL-3-independent growth allowing them to be cultured in the absence of IL-3. […] For use in compound testing, cells in exponential growth phase were harvested, counted, and resuspended at the required cell density. Cell viability assays were performed in 96-well assay plates and 90 μL of cell suspension seeded per well. Serial dilutions of the test compounds and assay controls and were freshly prepared for the assay. Nine-point 3× serial dilutions were prepared in 100% DMSO (400× stock) and subsequently diluted in cell culture media to obtain 10× stocks. Ten microliters of the 10× stock serial dilutions were added to the appropriate wells (triplicate wells per condition) in the assay plate. […] Assay plates were incubated for 3 days in at 37° C. in a humidified incubator with 5% CO2.
Inhibition rate (IR) of the tested compounds was determined by the following formula: IR (%)=(1−(RLU compound−RLU blank)/(RLU control−RLU blank))*100%. The inhibitions of different dose of compound were calculated in Excel file, and the dose responses were analysed using GraphPad Prism to evaluate related parameters, such as Bottom, Top and IC50. For the IC50 analysis by GraphPad Prism, the equation below was used to fit curve: Y=Bottom+(Top−Bottom)/(1+10^((LogIC50−X)*HillSlope))

[2] = test system: MOLM-13; assay: Proliferation inhibition, CellTiter-Glo, MOLM-13; type: cell-based, human; details: Homo sapiens, 96 h; MOLM-13 cells, IC50 (4 days), CellTiter-Glo; read-out: MOLM-13 IC50
How it was run: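 About 10,000 cells per well in RPMI-1640 with 10% FBS. Compounds added 2 h after seeding at eight concentrations in duplicate (0.2% DMSO as 100% proliferation), then incubated ~96 h at 37° C, 5% CO2. ATP measured by CellTiter-Glo luminescence; IC50 from four-parameter logistic fit.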

IC50 [2]: 1 to 10 nM
SMILES: CCc1nc(C(N)=O)c(Nc2ccc(N3CCC(N4CCN(C)CC4)CC3)c(OC)c2)nc1NC1CCOCC1 [Gilteritinib, gilteritinib, reference compound]
GI50 [1]: 10 to 100 nM
